Structures are written as SMILES.

For this experiment, the system named is β23 (HA-tagged) in SH-SY5Y cells. The experiment can be described thus: β23 clearance by Western blot and immunofluorescence of HA-tagged β23. Format: cell-based, Human. The conditions noted are these: 1 μM; for HA-β23 immunofluorescence signal in mCherry-positive transfected cells: 37 h. Here is the method: Figure 1 Peucedanocoumarin IV (PCiv) inhibits β23 aggregations and cytotoxicity in SH-SY5Y cells. (A) Scheme showing the detailed experimental steps in the organic synthesis of racemic PCiv and racemic PCiii (rac-PCiii, and rac-PCiv). Both PCiii and PCiv used in this study are racemic forms. (B) Trypan blue exclusion cell viability assessment in SH-SY5Y cells with Tet-Off-induced β23 expressions. β23 was expressed for 24 h using the Tet-off system. Further expression of β23 was halted by doxycycline (Dox) treatment with simultaneous treatment of the PCiii, PCiv, or their synthetic intermediate, trans-khellatone (t-khellatone, 1 μM 24 h). Cell viability was assessed 24 h after doxycycline treatment (n = 5 per group). (C) Synthetic PCiv’s protective effect on Tet-Off-expressed β23 toxicity in SH-SY5Y cells compared with peucedanocoumarin III (PCiii) determined by trypan blue exclusion assay. (D) The degradation of β23 monitored by Western blot at 37 h after doxycycline (200 ng/mL) treatment. The representative Western blot image of HA (β23) in SH-SY5Y cells treated with synthetic PCiii, synthetic PCiv (1 μM, 37 h), or DMSO as a vehicle. (E) Quantification of HA (β23) expression in SH-SY5Y cells from the indicated experimental groups in panel D (n = 3 experiments per group). (F) Representative immunofluorescence of steady state HA (β23) expression in SH-SY5Y cells expressing Tet-Off regulatable reporter mCherry and HA-tagged β23. […] (G) Quantification of HA (β23) immunofluorescence signal in mCherry positive SH-SY5Y cells in each experimental group (n = 32 cells from three separate experiments per group). The data are expressed as means ± SEMs. * p < 0.05, ** p < 0.01, *** p < 0.001, and **** p < 0.0001, ANOVA test followed by Tukey’s post hoc analysis. […]
Lysis buffer was added to the SH-SY5Y cells washed with ice-cold PBS (1% Nonidet P40 in PBS, pH 7.4) that was supplemented with protease/phosphatase inhibitors. […] The supernatants were quantified through BCA protein assessment. […] Next, band quantification was performed using ImageJ software. […]
In general terms: A western blot detects proteins with antibodies after separation by electrophoresis.

With `C/C=C(\C)C(=O)O[C@@H]1c2c(ccc3ccc(=O)oc23)OC(C)(C)[C@H]1OC(C)=O` (relative stereo) [PCiii, peucedanocoumarin III], the “HA-β23 immunofluorescence signal in mCherry-positive transfected cells” value is recorded as “markedly reduced”. Turning to `C/C=C(\C)C(=O)O[C@H]1[C@H](OC(C)=O)c2c(ccc3ccc(=O)oc23)OC1(C)C` (relative stereo) [PCiv, trans-4′-acetyl-3′-tigloylkhellactone], the “HA-β23 immunofluorescence signal in mCherry-positive transfected cells” value is given as “markedly reduced”. The “steady-state β23 expression levels (Western blot)” value (37 h after doxycycline) is given as “markedly reduced”.

(Values after PMC9369442, “Synthetic Peucedanocoumarin IV Prevents α-Synuclein Neurotoxicity in an Animal Model of Parkinson’s Disease” (International Journal of Molecular Sciences, 2022).)
